In patent EP3008041B1, “3-CARBAMOYL-1-METHYL[…], PROCESS FOR ITS PREPARATION AND ITS USE” (Uniwersytet Jagiellonski, priority 2013, dated 2014):
Like-named read-outs stand apart in the source and are kept apart here.

Key:
[1] = pharmacokinetics of MNA in rat plasma after single intravenous administration; assay type: in vivo, rats; settings: 100 mg/kg
Procedure: (§1) A method using high performance liquid chromatography combined with tandem mass spectrometry (LC/ESI-MS/MS) was developed and validated to determine concentrations of 1-methylnicotinamide (MNA) in rat plasma. […] The pharmacokinetic parameters were determined by a non-compartmental model using Phoenix WinNonlin software (Pharsight, Sannyvale, CA, USA).

[2] = pharmacokinetics of MNA in rat plasma after single intragastric administration; assay type: in vivo, rats; settings: 100 mg/kg; for AUC0→∞ / F / t0.5 / Cmax / MRT / tmax: MNA in rat plasma, single intragastric administration
Procedure: as §1

[3] = system: plasma coagulation system
Procedure: Coagulation parameters: prothrombin time (PT), activated partial thromboplastin time (aPTT), fibrinogen concentration by Caluss and the prothrombin time percentage ratio (Quick index) were assessed in frozen plasma (-80°C) using a Caog-Chrom 3003 Bio-ksel Grudzi ? dz device.

[4] = Procedure: The complete blood count was assessed approximately 2 minutes after collection in fresh citrated blood using an automatic Horiba ABC Vet device. The following parameters were assessed: white blood cell count (WBC), red blood cell count (RBC), haemoglobin (HGB), haematocrit (HCT), mean corpuscular volume (MCV), mean corpuscular haemoglobin (MCH), mean corpuscular haemoglobin concentration (MCHC) and platelet count (PLT).
[5] = system: fibrin; settings: hypertensive (2K1C) rats, 30 mg/kg i.v.
[6] = system: normotensive rats; settings: 30 mg/kg i.v., single dose 10 min before induction of thrombosis
[7] = system: platelets; settings: hypertensive rats after arterial thrombosis, 3 days per os twice a day (FIG. 2)
Procedure: The blood was diluted with 0.9% NaCl at a ratio of 1:1 and stirred in an aggregation cuvette at 1200 rpm. Samples of the stirred blood were collected after 20, 40 and 60 min and at "0" time and mixed with a cold solution of ASA (final concentration: 500 µM) at a ratio of 1:1. In these samples, TxB2 was determined using the ELISA assay, according to the manual provided by the manufacturer of the reagent kit.

[8] = TG technique under a nitrogen atmosphere
Procedure: Thermal stability was determined using the TG technique under a nitrogen atmosphere (with the use of the Mettler Toledo Star TGA/DSC 1 device).

[9] = colour change from pale yellow to brown
[10] = hypertensive (2K1C) rats
Remark: listed apart in the source
[11] = hypertensive (2K1C) rats, 30 mg/kg i.v.
[12] = hypertensive (2K1C) rats, 30 mg/kg p.o.
[13] = normotensive rats, 10 mg/kg i.v.
[14] = normotensive rats, 30 mg/kg i.v.
[15] = normotensive rats, 100 mg/kg i.v.

In the case of `C[n+]1cccc(C(N)=O)c1.[Cl-]` [MNACl, 3-carbamoyl-1-methylpyridinium chloride, reference compound], the “AUC0→∞” value [1] is reported as 4,362,231 ± 999,203 µg·min/L, the Co [1] is reported as 141,311 ± 56,500 µg/L and the clearance [1] is reported as 24 ± 5 mL/min/kg. For the same compound, the t0.5 [1] was 162.5 ± 76.2 min, the Vd ([1]; read-out: Vss) was 1.06 ± 0.35 L/kg and the MRT ([1]; rat, plasma, iv) was about 43 min. For the same compound, the “AUC0→∞” value [2] was 407,132 ± 164,906 µg·min/L, the F [2] was 9.33% and the t0.5 [2] was 247.4 ± 201 min. For the same compound, the Cmax ([2]; po, read-out: Cmax) was 2810 ng/mL, the MRT ([2]; po, read-out: MRT (converted)) was 359 min and the tmax ([2]; po, read-out: tmax (converted)) was 57.5 min.

`C[n+]1cccc(C(N)=O)c1.O=N[O-]` [MNANO2, 3-carbamoyl-1-methylpyridinium nitrite] gave an APTT [3, 11] of 18.46 ± 0.81 s, a Fglevel [3, 11] of 2.36 ± 0.13 ng/mL and a PT [3, 11] of 17.40 ± 0.69 s. It also gave a QUICK [3, 11] of 63.50±5.04, an APTT [3, 12] of 17.79 ± 0.62 s and a Fglevel [3, 12] of 2.61 ± 0.10 ng/mL. The PT [3, 12] was 18.16 ± 0.47 s, the QUICK [3, 12] was 62.00±4.01 and the APTT [3, 13] was 2.00 ± 2.68 s. For the same compound, the Fglevel [3, 13] was 2.04 ± 0.09 ng/mL, the PT [3, 13] was 18.23 ± 0.68 s and the QUICK [3, 13] was 61.75±5.42. It also gave an APTT [3, 14] of 25.67 ± 6.07 s, a Fglevel [3, 14] of 2.15 ± 0.28 ng/mL and a PT [3, 14] of 18.10 ± 0.81 s. For the same compound, the QUICK [3, 14] was 63.00±7.57, the APTT [3, 15] was 26.27 ± 2.89 s and the Fglevel [3, 15] was 1.96 ± 0.11 ng/mL. For the same compound, the PT [3, 15] was 19.17 ± 0.27 s, the QUICK [3, 15] was 53.33±1.67 and the HCT [4, 11] was 38.35±0.49%. For the same compound, the HGB [4, 11] was 12.27 ± 0.16 g/dL, the MCH [4, 11] was 17.51±0.26 pg per cell and the MCHC [4, 11] was 31.65 ± 0.21 g/dL. The MCV [4, 11] was 54.86 ± 0.60 fL, the PLT [4, 11] was 621±18 103/µL and the RBC [4, 11] was 7.36±0.19 106/µL. The WBC [4, 11] was 2.87±0.35 106/µL, the HCT [4, 12] was 40.07±0.03% and the HGB [4, 12] was 13.23 ± 0.24 g/dL. It also gave an MCH [4, 12] of 18.77±0.71 pg per cell, an MCHC [4, 12] of 32.97 ± 0.58 g/dL and an MCV [4, 12] of 57.00 ± 1.53 fL. The PLT [4, 12] was 630±12 103/µL, the RBC [4, 12] was 7.05±0.18 106/µL and the WBC [4, 12] was 2.93±0.26 106/µL. For the same compound, the HCT [4, 13] was 30.03±1.26%, the HGB [4, 13] was 12.15 ± 0.26 g/dL and the MCH [4, 13] was 25.05±0.53 pg per cell. For the same compound, the MCHC [4, 13] was 40.93 ± 1.00 g/dL, the MCV [4, 13] was 61.25 ± 0.25 fL and the PLT [4, 13] was 493±17 10^3/µl. For the same compound, the RBC [4, 13] was 4.90±0.18 106/µl, the WBC [4, 13] was 1.95±0.35 106/µl and the HCT [4, 14] was 29.07±1.61%. The HGB [4, 14] was 12.30 ± 0.26 g/dL, the MCH [4, 14] was 25.73±0.92 pg per cell and the MCHC [4, 14] was 42.40 ± 1.32 g/dL. The MCV [4, 14] was 60.68 ± 0.33 fL, the PLT [4, 14] was 489±23 10^3/µl and the RBC [4, 14] was 4.80±0.29 106/µl. The WBC [4, 14] was 1.77±0.43 106/µl, the HCT [4, 15] was 33.33±1.31% and the HGB [4, 15] was 12.67 ± 0.47 g/dL. It also gave an MCH [4, 15] of 25.53±0.48 pg per cell, an MCHC [4, 15] of 37.97 ± 0.18 g/dL and an MCV [4, 15] of 62.00 ± 1.16 fL. For the same compound, the PLT [4, 15] was 566±56 10^3/µl, the RBC [4, 15] was 5.38±0.21 106/µl and the WBC [4, 15] was 1.12±0.19 106/µl. The “Generation of fibrin (AUC)” value [5] was 186.00±10.23, the “AUC0→∞” value [1] was 6,948,716 ± 1,810,664 µg·min/L and the Cl [1] was 15 ± 3 mL/min/kg. For the same compound, the Co [1] was 138,078 ± 33,208 µg/L, the Vss [1] was 0.63 ± 0.1 L/kg and the t0.5 [1] was 61.7 ± 19.6 min. For the same compound, the Thrombus weight [6] was 0.78 ± 0.05 mg, the “thromboxane B2 (TxB2) production by platelets ex vivo” value [7] was “inhibition of thromboxane B2 (TxB2) production” and the Tonset [8] was 195 °C. The Tonset5% [8] was 170 °C, the “AUC0→∞” value [2] was 638,056 ± 167,631 µg·min/L and the Cmax [2] was 8,881 ± 5,506 µg/L. It also gave an F [2] of 9.18%, an MRT [2] of 232 ± 38.3 min and a t0.5 [2] of 178.4 ± 12.2 min. For the same compound, the tmax [2] was 15 ± 10 min, the “concentration in rat plasma compared to MNACl administration” value ([2]; intragastric administration) was “three times higher” and the “time of occurrence of the maximum concentration compared to MNACl administration” value ([2]; intragastric administration) was “four times shorter”. For the same compound, the “stability of aqueous solutions” value [9] was “not stable over time”, the “Concentration of MNA in plasma after collecting thrombus” value ([10]; 30 mg/kg i.v.) was 8.72 ± 4.90 µM and the “Concentration of MNA in plasma after collecting thrombus” value ([10]; 30 mg/kg p.o.) was 5.76 ± 3.78 µM. The solubility (DMSO) was “soluble”, the solubility (diethyl ether) was “not soluble” and the solubility (ethanol) was “soluble”. For the same compound, the solubility (hexane) was “not soluble”, the solubility (methanol) was “soluble” and the solubility (water) was “soluble”.
